From publication PMC12367838, “Relevance of kinetic interactions and co-formulants for plant protection product liver toxicity in vitro” (Archives of Toxicology, 2025)
Converted amounts (≈) assume the structure as drawn.

Legend:
[1] = Neutral red uptake (NRU) cytotoxicity assay; format: cell-based, human; conditions: human, differentiated HepaRG cells, NRU assay, 72-h incubation
Protocol: (§1) Wild-type human hepatoma HepaRG cells obtained from Biopredic International (Saint Grégoire, France) were cultivated for 4 weeks in a Binder cell culture incubator maintained at 37 °C in a 5% humidified atmosphere with 5% CO2 before they were employed in this study. The 4 weeks consisted of 2 weeks of proliferation and 2 weeks of differentiation. […]
(§2) Cytotoxicity assays were performed in 96-well plates at a density of 9000 cells per well, and test compounds were incubated for 72 h. […] After the 30-min incubation with WST-1, absorbance was measured at 450 nm corrected by a reference at 620 nm (λexc = 450 nm/λemi = 620 nm) using an Infinite M200 PRO plate reader (Tecan; Männedorf, Switzerland). […] The absorbed dye was quantified by fluorescence measurement (λexc = 530 nm/λemi = 645 nm) on an Infinite M200 PRO plate reader (Tecan; Männedorf, Switzerland). Background corrected viability values of both assays were expressed as a percentage of untreated cells. […] Means and standard deviations for each treatment were calculated. […]

[2] = WST-1 cytotoxicity assay; format: cell-based, human; conditions: human, differentiated HepaRG cells, WST-1 assay, 72 h incubation
Protocol: as §1, §2

[3] = CYP450 reaction phenotyping, control-Silensomes; format: in vitro ADME, human
Text: (§3) Silensomes™ CYP phenotyping kits (Lonza; Basel, Switzerland) contain human pooled liver microsomes (HLM) that are chemically and irreversibly inactivated by mechanism-based inhibitor for each specific CYP450 isoenzyme. Each CYP-Silensomes™ has a corresponding control that is produced the same way without inactivation. […] However, CYP2C19-Silensomes™ were not available for purchasing. The assay was essentially performed according to the instructions of the supplier. […] At 0, 10, 20, 30, and 45 min, 50 µL of the reaction volume was removed and put in a tube containing 50 µL of methanol to stop the CYP reactions. The tubes were allowed to stand at 4 °C for 1 h to allow protein precipitation to occur. Afterwards, the tubes were centrifuged at 3500 × g for 15 min at 4 °C before the supernatant was removed and analyzed using LC–MS/MS. The control experiments with the control HLM were performed at the same time as the Silensomes™. The in vitro intrinsic clearance (Clint) for each enzyme was calculated as follows: Clint (µL/min/mg) = (slope × V)/P, where the slope is the elimination rate constant (min^−1) for exponential substrate loss, V is the incubation volume (µL), and P is the microsomal protein (mg). The fraction metabolized by each CYP enzymes was determined as follows: fm = (1 – (Clint CYP-Silensomes™/Clint Control-Silensomes™)) × 100. […]

[4] = tested on: CYP1A2; assay: CYP450 reaction phenotyping, CYP1A2-Silensomes; format: in vitro ADME, human
Text: Silensomes™ CYP phenotyping kits (Lonza; Basel, Switzerland) contain human pooled liver microsomes (HLM) that are chemically and irreversibly inactivated by mechanism-based inhibitor for each specific CYP450 isoenzyme. Each CYP-Silensomes™ has a corresponding control that is produced the same way without inactivation. […] However, CYP2C19-Silensomes™ were not available for purchasing. The assay was essentially performed according to the instructions of the supplier. […] At 0, 10, 20, 30, and 45 min, 50 µL of the reaction volume was removed and put in a tube containing 50 µL of methanol to stop the CYP reactions. The tubes were allowed to stand at 4 °C for 1 h to allow protein precipitation to occur. Afterwards, the tubes were centrifuged at 3500 × g for 15 min at 4 °C before the supernatant was removed and analyzed using LC–MS/MS. The control experiments with the control HLM were performed at the same time as the Silensomes™. The in vitro intrinsic clearance (Clint) for each enzyme was calculated as follows: Clint (µL/min/mg) = (slope × V)/P, where the slope is the elimination rate constant (min^−1) for exponential substrate loss, V is the incubation volume (µL), and P is the microsomal protein (mg). The fraction metabolized by each CYP enzymes was determined as follows: fm = (1 – (Clint CYP-Silensomes™/Clint Control-Silensomes™)) × 100. Three independent experiments were conducted with the same batch of Silensomes™.

[5] = tested on: CYP2C9; assay: CYP450 reaction phenotyping, CYP2C9-Silensomes; format: in vitro ADME; conditions: human, pH 7.4
Text: as §3

[6] = tested on: CYP3A4; assay: CYP450 reaction phenotyping, CYP3A4-Silensomes; format: in vitro ADME, human
Text: as §3

[7] = tested on: CYP3A4; conditions: clearance of DIF in healthy human adults; ref Wetmore et al. (2014); cited from earlier work
[8] = tested on: CYP2C9; conditions: clearance of DIF in healthy human adults; ref Wetmore et al. (2014); cited from earlier work
[9] = tested on: UGT1A4; conditions: clearance of DIF in healthy human adults; ref Wetmore et al. (2014); cited from earlier work
[10] = tested on: HepaRG cells; assay: Total RNA sequencing, differential gene expression; conditions: 24 h, vs solvent control
[11] = tested on: HepaRG cells; assay: Quantification of DIF in cell culture supernatant (LC-MS/MS); conditions: 24-h treatment of HepaRG cells; µg DIF in medium/µg start concentration × 100%
Protocol: HepaRG cells were incubated for 24 h at 37 °C and 5% CO2 in a humidified atmosphere with each test compound in treatment medium of 0.5% final DMSO concentration. After incubation, medium was harvested and cells were washed twice with 0.5 mL PBS, which was added to the harvested medium. Cell lysis was performed on ice by adding 0.55 mL of RIPA Lysis and Extraction Buffer (Thermo Fisher Scientific, Waltham, Massachusetts, USA) in each well. The experiment was conducted in duplicates, which were pooled to make a final volume of 3 mL for medium samples and 1.1 ml of the cell samples for each test compound. The Pierce™ BCA Protein Assay Kit (Thermo Fisher Scientific, Waltham, Massachusetts, USA) was utilized to quantify protein in 50 µL of the cell lysates in order to normalize the measured pesticide concentrations in cells to absolute protein quantities.
Briefly, each of the 1.5 mL of medium samples and 500 µL cell samples was added to 50 mL centrifuge tubes. Up to 5 mL Milli-Q water was added followed by 10 mL acetonitrile. The mixture was shaken vigorously by a vortex mixer for 10 min. […]
Samples from the CYP450 reaction phenotyping and pesticide quantification were analyzed with an Agilent 1290 Infinity II LC system coupled to Agilent 6475 triple quadrupole LC/MS systems (Agilent Technologies; Heilbronn, Germany). […]

[12] = high sub-cytotoxic concentration
[13] = low sub-cytotoxic concentration

With `CC1COC(Cn2cncn2)(c2ccc(Oc3ccc(Cl)cc3)cc2Cl)O1` (centres unmarked) [DIF, difenoconazole] the EC50 at 72 h [1] was 15.9 mg/L (≈ 39.1 µM), the EC50 at 72 h [2] was 11.8 mg/L (≈ 29 µM) and the “DIF remaining, control-Silensomes” value ([3]; after a 45-min incubation) was “about 20%”. The microsomal CLint at 1 µM ([3]; human, pH 7.4) was 15.7 µL/min/mg, the “CYP1A2 fm (fraction metabolized)” value ([4]; Silensomes vs control-Silensomes) was “≈ 0%” and the “DIF remaining, CYP1A2-Silensomes” value ([4]; after a 45-min incubation) was “about 20%”. The microsomal CLint at 1 µM ([4]; human, pH 7.4) was 15.8 µL/min/mg, the microsomal CLint at 1 µM [5] was 12.5 µL/min/mg and the “CLint, CYP3A4-Silensomes” value ([6]; 1 µM DIF, 1 mg/mL, 37 °C) was 9.27 µL x min^−1 × mg^−1. The “DIF remaining, CYP3A4-Silensomes” value ([6]; after 45 min) was ~40%, the CYP3A4 fm [7] was 43.3% and the CYP2C9 fm [8] was 5.41%. The UGT1A4 fm [9] was 4.55%, the “ACOX1 log2FoldChange” value [10, 12] was -0.02489 and the “AHR log2FoldChange” value [10, 12] was 0.5444. The “CD36 log2FoldChange” value [10, 12] was -0.5278, the “FASN log2FoldChange” value [10, 12] was -0.3325 and the “INSIG1 log2FoldChange” value [10, 12] was -1.049. For the same compound, the “MLXIPL log2FoldChange” value [10, 12] was 0.2472, the “NR1H2 log2FoldChange” value [10, 12] was 0.8621 and the “NR1H4 log2FoldChange” value [10, 12] was -0.4056. The “NR1I2 log2FoldChange” value [10, 12] was 0.3067, the “NR1I3 log2FoldChange” value [10, 12] was -1.429 and the “NR3C1 log2FoldChange” value [10, 12] was 0.4134. For the same compound, the “PPARA log2FoldChange” value [10, 12] was -0.3067, the “PPARG log2FoldChange” value [10, 12] was 2.421 and the “RARA log2FoldChange” value [10, 12] was 0.4466. The “RARB log2FoldChange” value [10, 12] was 1.042, the “RARG log2FoldChange” value [10, 12] was 0.1102 and the “SCD log2FoldChange” value [10, 12] was -0.7403. For the same compound, the “SREBF1 log2FoldChange” value [10, 12] was -1.013, the “ACOX1 log2FoldChange” value [10, 13] was 0.1757 and the “AHR log2FoldChange” value [10, 13] was -0.129. The “CD36 log2FoldChange” value [10, 13] was 0.878, the “FASN log2FoldChange” value [10, 13] was 0.4404 and the “INSIG1 log2FoldChange” value [10, 13] was 1.024. For the same compound, the “MLXIPL log2FoldChange” value [10, 13] was 0.1497, the “NR1H2 log2FoldChange” value [10, 13] was 0.1806 and the “NR1H4 log2FoldChange” value [10, 13] was 0.1474. For the same compound, the “NR1I2 log2FoldChange” value [10, 13] was 0.3965, the “NR1I3 log2FoldChange” value [10, 13] was -0.3855 and the “NR3C1 log2FoldChange” value [10, 13] was -0.2111. For the same compound, the “PPARA log2FoldChange” value [10, 13] was 0.07836, the “PPARG log2FoldChange” value [10, 13] was 0.2447 and the “RARA log2FoldChange” value [10, 13] was 0.1188. The “RARB log2FoldChange” value [10, 13] was 0.3597, the “RARG log2FoldChange” value [10, 13] was 0.07285 and the “SCD log2FoldChange” value [10, 13] was 0.5665. The “SREBF1 log2FoldChange” value [10, 13] was -0.5234 and the “DIF remaining in the cell culture medium” value [11] was ~4%.
